The structures appear in SMILES notation.

This experiment concerns HCT-116. The experiment in a line: Cellular activity against human colon tumor cell line, HCT116. Type of experiment: functional.

In turn, `C#CCCCn1c(Cc2cc(OC)c(OC)c(OC)c2Cl)nc2c(N)nc(F)nc21` displayed a GI50 of 3.9 µM. For `C#CCCCn1c(Cc2cc(OC)ccc2OC)nc2c(N)nc(F)nc21` the value was 3.3 µM; for `CCCCn1c(Cc2cc(OC)ccc2OC)nc2c(N)nc(F)nc21`, 3.4 µM.

In general, GI50 refers to the concentration giving 50% growth inhibition. A low value points to more potent growth inhibition.

These data come from ChEMBL document CHEMBL1146822, “Adenine derived inhibitors of the molecular chaperone HSP90-SAR explained through multiple X-ray structures” (Bioorg Med Chem Lett, 2004).
